Measured values taken from BindingDB's records for doi:10.1016/j.bmcl.2004.06.018 (Darmstadt Technical University, 2004).

Target: Proto-oncogene tyrosine-protein kinase Src (Homo sapiens, UniProt P12931)
Assay: Inhibition of fluorescent (GpYEEI) binding to Src protein tyrosine kinase SH2 domain

Sequence of Proto-oncogene tyrosine-protein kinase Src (P12931 2-536 limits assumed): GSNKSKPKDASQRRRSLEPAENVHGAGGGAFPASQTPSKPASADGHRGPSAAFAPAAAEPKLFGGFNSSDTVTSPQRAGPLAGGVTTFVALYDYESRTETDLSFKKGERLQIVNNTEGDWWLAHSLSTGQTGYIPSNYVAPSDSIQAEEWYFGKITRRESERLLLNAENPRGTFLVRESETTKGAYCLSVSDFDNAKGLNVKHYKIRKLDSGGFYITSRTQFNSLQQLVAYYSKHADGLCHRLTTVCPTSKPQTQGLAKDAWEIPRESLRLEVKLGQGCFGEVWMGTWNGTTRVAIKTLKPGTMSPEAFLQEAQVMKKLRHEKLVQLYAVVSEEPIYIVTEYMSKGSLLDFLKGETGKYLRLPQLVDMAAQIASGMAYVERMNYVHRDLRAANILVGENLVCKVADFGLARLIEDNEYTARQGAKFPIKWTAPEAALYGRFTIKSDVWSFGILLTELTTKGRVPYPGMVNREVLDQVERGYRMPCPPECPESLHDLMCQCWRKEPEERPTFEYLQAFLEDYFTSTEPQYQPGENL

`COc1cccc(CNC(=O)[C@H](Cc2ccccc2)NC(=O)COc2cc3[n+]4c(c2)C(=O)[O][Cu]4([OH])[O]C3=O)c1` [Copper complex] was tested, and the IC50 was 17 µM.

In the case of `COc1cccc(CNC(=O)[C@@H](NC(=O)COc2cc3[n+]4c(c2)C(=O)[O][Cu]4([OH])[O]C3=O)c2ccccc2)c1` [Copper complex], the IC50 is reported as 20 µM.
